The source of these data is patent US20050271676A1, “Inducing cellular immune responses to human immunodeficiency virus-1 using peptide and nucleic acid compositions” (Epimmune Inc., priority 1993, published 2005).

No end group written: not given here.

In test [1] the test system is HLA-A11/K^b transgenic mice. As to the kind of experiment: CTL induction in HLA-A11/K^b transgenic mice after peptide immunization. Format: in vivo. The note with it: protocol as for HLA-A2 transgenic mice.
The test system of test [2] is PBMC from patients infected with HIV. As to the kind of experiment: recall CTL responses, PBMC from HIV-infected patients, 51Cr release. The class given is cell-based, human.
The subject of test [3] is A*0201/K^b transgenic mice. The test is described as follows: CTL induction in A*0201/K^b transgenic mice after peptide immunization. The class given is in vivo.
The target in a further test is HLA-A*0206 (Homo sapiens, UniProt P04439, D140Y/D185E/D98H/E176V/E277Q/F33Y/G131W/G231S/I119V/I121R/I166T/I218V/L300P/L318F/N151K/N90K/P208A/P217A/Q86G/Q94H/R138H/R169H/T345S). As to the kind of experiment: purified HLA class I binding assay, A*0206.
The target of another test is HLA-A*6802 (Homo sapiens, UniProt P04439, A269V/D140Y/D185E/E176V/E277Q/E87N/F33Y/G231S/I121R/I166T/I218V/L180W/L300P/L318F/N151K/P208A/P217A/Q86R/R138H/R169H/S129P/T345S/V36M). As to the kind of experiment: purified HLA class I binding assay, A*6802.
The target in the next test is HLA-A*0203 (Homo sapiens, UniProt P04439, A173T/D140Y/D185E/D98H/E277Q/G131W/G231S/I119V/I121R/I166T/I218V/L180W/L300P/L318F/N151K/N90K/P208A/P217A/Q86G/Q94H/R138H/R169H/T345S). The test is described as follows: purified HLA class I binding assay, A*0203.
The next test has as its target HLA-B*5301 (Homo sapiens, UniProt P01889, A329T/A93T/A95T/C349S/D201E/D98Y/E176V/E187L/E204Q/E69T/G107R/I218V/K202T/L105A/L119I/N104I/Q94N/R106L/R155S/R180L/S101N/S121R/S35A/S48A/T118I/V127L/V306I/V36M/Y140S/Y91F). The test is described as follows: purified HLA class I binding assay, B*5301.
Another test has as its target HLA-B51 (B*5101) (Homo sapiens, UniProt P01889, A329T/A93T/A95T/C349S/D138N/D201E/D98Y/E187L/E204Q/E69T/G107R/I218V/K202T/L105A/L119W/N104I/Q94N/R106L/R155S/R180L/S101N/S121T/S35A/S48A/V306I/V36M/Y195H/Y91F). The test is described as follows: purified HLA class I binding assay, B51 (B*5101).
For the next test, the target named is HLA-B*5401 (Homo sapiens, UniProt P01889, A329T/C349S/D138N/D201E/E176V/E187T/E204Q/E69G/I76V/K202T/L119W/R155S/R180L/S121T/S35A/S48A/V127L/V306I/V36M/Y140L). The test is described as follows: biochemical.
A further test has as its target HLA-B*3501 (Homo sapiens, UniProt P01889, A329T/A93T/A95T/C349S/D201E/D98Y/E176V/E187L/E204Q/E69T/I218V/K202T/L119I/Q94N/R155S/R180L/S121R/S35A/S48A/T118I/V127L/V306I/V36M/Y140S/Y91F). The test is described as follows: purified HLA class I binding assay, B*3501.

For the compound `CC(C)[C@H](N)C(=O)N[C@H](C(=O)N[C@H](C(=O)N[C@@H](Cc1ccc(O)cc1)C(=O)N[C@@H](Cc1ccc(O)cc1)C(=O)NCC(=O)N[C@H](C(=O)N1CCC[C@H]1C(=O)N[C@H](C(=O)N[C@@H](Cc1c[nH]c2ccccc12)C(=O)N[C@@H](CCCCN)C(=O)O)C(C)C)C(C)C)C(C)C)[C@@H](C)O` [Peptide 1069.47], in test [1], the “induction of CTL in HLA-A11 transgenic mice” value is reported as “induced CTL responses in transgenic mice”. Besides, the “immunogenicity in HIV-infected patients” value in [2] (shown by collaborators) is given as “immunogenic in HIV-infected patients”.

Take `CC[C@H](C)[C@H](NC(=O)CNC(=O)[C@H](Cc1c[nH]c2ccccc12)NC(=O)[C@@H](NC(=O)[C@@H](NC(=O)[C@H](CC(C)C)NC(=O)[C@H](CCC(N)=O)NC(=O)[C@H](CC(C)C)NC(=O)[C@@H](N)CC(C)C)[C@@H](C)O)C(C)C)C(=O)O` [Peptide 1261.02]: the Immunogenicity transgenic in test [3] (A2 Supermotif peptides, positive/tested transgenic) is 1/6; in [3] (A*0201/K^b transgenic mice, positive/tested), 1/6. Besides, the results for the IC50 at HLA-A*0206, on HLA-A*6802 and at HLA-A*0203 were 24.7 nM, 645 nM and 43.5 nM, respectively. Besides, the Immunogenicity patients in [2] (A2-supertype peptides, positive/tested HIV-infected patients) was 2/8; in test [2] (A2 Supermotif peptides, positive/tested patients), 2/8.

Regarding VPLQLPPL [29.0028], the IC50 – broadly, the concentration that gives 50% inhibition – was determined as 46500 nM at HLA-B*5301, 0.8 nM on HLA-B51 (B*5101), 270 nM against HLA-B*5401 and 6000 nM at HLA-B*3501.
